Reference: ChEMBL document CHEMBL3886324, “Pyrimidinylpiperidinyloxypyridone analogues as GPR119 modulators” (2015)

test: Tet-Inducible cAMP Assay: A human-mouse chimeric GPR119 expression construct encoding 3 copies of the FLAG epitope tag, the first 198 amino acids of human GPR119 and the C-terminal 137 amino acids of the mouse receptor was cloned into a tetracycline inducible vector pcDNA5/FRT/TO (Invitrogen #V6520-20), which includes a hygromycin-resistance marker. Tightly controlled receptor expression was achieved by stable integration of this construct into the genome of a specific host cell line, Flp-In-T-Rex-HEK293, expressing the tetracycline repressor (Invitrogen). Once a stable hygromycin-resistant cell line was generated, the cells were maintained at 37° C. in a humidified 5% CO2 atmosphere in culture medium consisting of Dulbecco's modified Eagle's medium (DMEM; Invitrogen #11960) supplemented with 2 mM L-glutamine, 10% fetal bovine serum, 200 μg/ml hygromycin B, and 15 μg/ml blasticidin.

Structure (SMILES)	EC50 [nM]
Cc1nc(-n2ccc(OC3CCN(c4ncc(Cl)cn4)CC3)cc2=O)ccc1N1CCC(O)C1=O (stereo not drawn)	10
Cc1nc(-n2cc(Cl)c(OC3CCN(c4ncc(Cl)cn4)CC3)cc2=O)ccc1N1CC[C@@H](O)C1=O	3
Cc1nc(-n2cc(Cl)c(OC3CCN(c4ncc(Cl)cn4)CC3)cc2=O)ccc1N1CCC(O)C1=O (stereo not drawn)	2
